EC50 and IC50 data for 21 molecules are collected here from patent publication US10035792B2, “Resorcinol derivative as HSP90 inhibitor” (priority 2015, dated 2018).

Where two headings read alike, the source gives them in different places.

Experiment [1] relates to human lung cancer cell line A549. Nature of the experiment: Tumor cell growth inhibition, SRB staining, A549. Type of experiment: cell-based. The following applies: A549, 72 h. As for the experimental part:
The growth inhibition assay of tumor cells was detected by sulforhodamine B (SRB) staining method. The specific steps were as follows: inoculating human colon cancer cell line HCT116 and human lung cancer cell line A549 (purchased from American Type Culture Collection, ATCC) at the logarithmic growth phase into a 96-well micro culture plate at an appropriate concentration of 4000 cells/well, 100 μL for each well; after culturing overnight, adding with the compound at different concentrations (100, 10, 1, 0.1, 0.01 μM) to react for 72 h, wherein triplicate wells were set up for each concentration, and solvent control wells with the corresponding concentration and zero wells without cells were also set up. After the completion of the reaction, the culture medium was removed from the adherent cells, the later was added with 10% (w/v) trichloroacetic acid (100 μL/well) at 4° C. to fix for 1 h, and then washed five times with distilled water. After drying at room temperature, 100 μL of SRB solution (4 mg/mL, dissolved in 1% glacial acetic acid) was added into each well, followed by incubation and staining for 15 min at room temperature. The uncombined SRB was removed by washing five times with 1% glacial acetic acid. After drying at room temperature, 100 μL of 10 mM Tris solution was added into each well, and the optical density (OD) at 515 nm was measured by a […] microplate reader. The inhibition rate of the drug to tumor cell growth was calculated according to the following equation: Inhibition rate (%)=(OD of control well-OD of drug well)/OD of control well×100%. The experiment was repeated twice.
(In general: In SRB staining, fixed cells bind dye roughly in proportion to their protein.)

The next experiment addresses HSP90α (Homo sapiens (Human), UniProt P07900). Description: Fluorescence polarization (FP) HSP90-alpha target binding assay. The source says:
In the present invention, the method of fluorescence polarization (FP) was used to establish the screening platform for HSP90-alpha inhibitors. The principle based on is to calculate fluorescence polarization values in horizontal and vertical directions by detecting molecular weight changes before and after interaction of fluorescent labeled small molecules with other molecules, in use for correlation analysis. If binding equilibria between the fluorescent labeled small molecule and the macromolecule is established, it moves slowly when excited, and the fluorescence polarization values measured will increase. If the fluorescent labeled small molecule binding to the macromolecule is replaced with other ligands, its rotational or inversional speed in free state will become faster, the emitted light would be depolarized with respect to the exciting light plane, and thus the polarized light value measured will decrease, so as to calculate the polarization value of the sample (the unit of polarization value is mP).
The fluorescent labeled small molecule used in the present invention was VER-00051001 (synthesized by reference to the synthetic method described in JMC, 2008, 51, 196-218). The reaction was carried out in a 384-well black plate, using the reaction hydrophobic protein HFB buffer: 100 mM Tris.Cl pH 7.4, 20 mM KCl, 6 mM MgCl2, 5 μg/mL BSA, 25 nM full-length Hsp90U, 10 nM VER-51001. The volume of the reaction system was […], containing 5 nM GM-BODIPY (geldanamycin), 30 nM HSP90 and the test small molecular compound or DMSO (dimethyl sulfoxide), wherein the DMSO content was 2% o. Additional two group wells were established, wherein the wells only added with HFB buffer were used as blank controls, and the wells further added with 5 nM GM-BODIPY were used as negative controls. The reaction was carried out at 4° C. for 12-16 hours. The mP value was measured by Biotek microplate reader at 485 nm of excitation wavelength and 535 nm of emission wavelength. The inhibition rate was calculated using the following equation: (Compound-free mP−Compound mP)/(Compound-free mP−negative control mP)×100%
A general note: Polarisation of emitted light reports the rotation of a fluorescent probe.

Setting [2] is: fluorescence polarization, read-out: Target binding ability HSP90α FP IC50.

With `CC(C)c1cc(-c2onc(C(=O)NCC(F)(F)F)c2-c2ccc3c(c2)CCN(C)C3)c(O)cc1O` [Example 39, 5-(2,4-dihydroxyl-5-isopropylphenyl)-N-(2,2,2-trifluoroethyl)-4-(2-methyl-1,2,3,4-tetrahydroisoquinolin-6-yl)isoxazole-3-carboxamide], the EC50 (in general, the concentration at which the effect is half-maximal) in experiment [1] is 20 to 100 nM. Also, the concentration for half-maximal inhibition (IC50) (usually the midpoint of a concentration-inhibition curve) at HSP90α (setting [2]) lay in the range of 20 to 100 nM.
`CCNC(=O)c1noc(-c2cc(C(C)C)c(O)cc2O)c1-c1ccc2c(c1)CCN(CCO)C2` [Example 44, 5-(2,4-dihydroxyl-5-isopropylphenyl)-N-ethyl-4-(2-(2-hydroxyethyl)-1,2,3,4-tetrahydroisoquinolin-6-yl)isoxazole-3-carboxamide] gave a half-maximal effective concentration (EC50) in experiment [1] of 20 to 100 nM. In addition, the IC50 on HSP90α (setting [2]) is < 20 nM.
Taken in the same sequence, the figures for `CCc1cnc(-c2noc(-c3cc(C(C)C)c(O)cc3O)c2-c2ccc3c(c2)CCN(CCO)C3)[nH]1` [Example 17, 4-(3-(5-ethyl-1H-imidazol-2-yl)-4-(2-(2-hydroxyethyl)-1,2,3,4-tetrahydroisoquinolin-6-yl)isoxazol-5-yl)-6-isopropylbenzene-1,3-diol] were 20 to 100 nM and 20 to 100 nM.
The like results for `CC(C)c1cc(-c2onc(C(=N)NC#N)c2-c2ccc3c(c2)CCN(C)C3)c(O)cc1O` [Example 21, N-cyano-5-(2,4-dihydroxyl-5-isopropylphenyl)-4-(2-methyl-1,2,3,4-tetrahydroisoquinolin-6-yl)isoxazole-3-carboxamidine] were, in that order, > 100 nM and < 20 nM.
As for `CCNC(=O)c1noc(-c2cc(C(C)C)c(O)cc2O)c1-c1ccc2c(c1)C1CCC2N1CC` (stereo not drawn) [Example 6, 5-(2,4-dihydroxyl-5-isopropylphenyl)-N-ethyl-4-(9-ethyl-1,2,3,4-tetrahydro-1,4-epiminonaphth-6-yl)isoxazole-3-carboxamide], the 50% effective concentration (EC50) in experiment [1] is < 20 nM. This molecule also registered an IC50 at HSP90α of 20 to 100 nM.
`CCNC(=O)c1noc(-c2cc(C(C)C)c(O)cc2O)c1-c1cnc2c(c1)CN(C)CC2` [Example 19, 5-(2,4-dihydroxyl-5-isopropylphenyl)-N-ethyl-4-(6-methyl-5,6,7,8-tetrahydro-1,6-naphthyridin-3-yl)isoxazole-3-carboxamide]: in experiment [1], the EC50 was > 100 nM. Moreover, the IC50 on HSP90α (setting [2]) lay within 20 to 100 nM.
Taken in the same sequence, the figures for `CCNC(=O)c1noc(-c2cc(C(C)C)c(O)cc2O)c1-c1ccc2c(c1)CCN(C(=O)CN(C)C)C2` [Example 59, 5-(2,4-dihydroxyl-5-isopropylphenyl)-4-(2-(2-(dimethylamino)acetyl)-1,2,3,4-tetrahydroisoquinolin-6-yl)-N-ethylisoxazole-3-carboxamide] were > 100 nM and 20 to 100 nM.
For the molecule `CCNC(=O)c1noc(-c2cc(C(C)C)c(O)cc2O)c1-c1ccc2c(c1)C1CCC2N1` (stereo not drawn) [Example 4, 5-(2,4-dihydroxyl-5-isopropylphenyl)-N-ethyl-4-(1,2,3,4-tetrahydro-1,4-epiminonaphth-6-yl)isoxazole-3-carboxamide], the EC50 in experiment [1] lay in the range of 20 to 100 nM. Also, at HSP90α, the IC50 lay in the range of 20 to 100 nM.
On to `CCNC(=O)c1onc(-c2cc(C(C)C)c(O)cc2O)c1-c1ccc2cnccc2c1` [Example 29, 3-(2,4-dihydroxyl-5-isopropylphenyl)-N-ethyl-4-(isoquinolin-6-yl)isoxazole-5-carboxamide], for which the EC50 in experiment [1] was 20 to 100 nM. Besides, the IC50 at HSP90α (setting [2]) was < 20 nM.
Taken in the same sequence, the figures for `CCNC(=O)c1noc(-c2cc(C(C)C)c(O)cc2O)c1-c1ccc2c(c1)CCN(CCS(=O)(=O)CC)C2` [Example 48, 5-(2,4-dihydroxyl-5-isopropylphenyl)-N-ethyl-4-(2-(2-ethylsulfonyl)ethyl-1,2,3,4-tetrahydroisoquinolin-6-yl)isoxazole-3-carboxamide] were 20 to 100 nM and 20 to 100 nM.
With `CCNC(=O)c1onc(-c2cc(C(C)C)c(O)cc2O)c1-c1ccc2c(c1)CCN(C(C)C)C2` [Example 68, 3-(2,4-dihydroxyl-5-isopropylphenyl)-N-ethyl-4-(2-isopropyl-1,2,3,4-tetrahydroisoquinolin-6-yl)isoxazole-5-carboxamide], the EC50 in experiment [1] is < 20 nM. Moreover, the IC50 on HSP90α (setting [2]) was < 20 nM.
As to `CCNC(=O)c1noc(-c2cc(C(C)C)c(O)cc2O)c1-c1nc2c(s1)CCN(C)C2` [Example 10, 5-(2,4-dihydroxyl-5-isopropyl-phenyl)-N-ethyl-4-(5-methyl-4,5,6,7-tetrahydrothiazolo[4,5-c]pyridin-2-yl)isoxazole-3-carboxamide], the EC50 in experiment [1] lay within 20 to 100 nM. In addition, the IC50 on HSP90α (setting [2]) was 20 to 100 nM.
`CCCNC(=O)c1noc(-c2cc(C(C)C)c(O)cc2O)c1-c1ccc2c(c1)CCN(C)C2` [Example 37, 5-(2,4-dihydroxyl-5-isopropylphenyl)-N-propyl-4-(2-methyl-1,2,3,4-tetrahydroisoquinolin-6-yl)isoxazole-3-carboxamide] had an EC50 in experiment [1] of 20 to 100 nM. In addition, the IC50 at HSP90α (setting [2]) was 20 to 100 nM.
As for `CCNC(=O)c1onc(-c2cc(C(C)C)c(O)cc2O)c1-c1ccc2c(c1)CCNCC2` [Example 28, 3-(2,4-dihydroxyl-5-isopropylphenyl)-N-ethyl-4-(2,3,4,5-tetrahydro-1H-3-benzazepin-7-yl) isoxazole-5-carboxamide], in experiment [1], the EC50 was < 20 nM. Moreover, the IC50 at HSP90α (setting [2]) is < 20 nM.
In the case of `CCNC(=O)c1noc(-c2cc(C(C)C)c(O)cc2O)c1-c1ccc2c(c1)CCN(CCNC(C)=O)C2` [Example 53, 4-(2-(2-acetylaminoethyl)-1,2,3,4-tetrahydroisoquinolin-6-yl)-5-(2,4-dihydroxyl-5-isopropylphenyl)-N-ethylisoxazole-3-carboxamide], the EC50 in experiment [1] is > 100 nM. Besides, the IC50 on HSP90α (setting [2]) lay within 20 to 100 nM.
For the molecule `CCc1cnc(-c2noc(-c3cc(C(C)C)c(O)cc3O)c2-c2ccc3c(c2)CCN(C)C3)[nH]1` [Example 16, 4-(3-(5-ethyl-1H-imidazol-2-yl)-4-(2-methyl-1,2,3,4-tetrahydroisoquinolin-6-yl)isoxazol-5-yl)-6-isopropylbenzene-1,3-diol], the EC50 in experiment [1] was < 20 nM. For the same molecule, on HSP90α (setting [2]), the IC50 lay in the range of 20 to 100 nM.
For the molecule `CCNC(=O)c1noc(-c2cc(C(C)C)c(O)cc2O)c1-c1ccc2c(c1)CCN(C(=O)CCN(C)C)C2` [Example 57, 5-(2,4-dihydroxyl-5-isopropylphenyl)-4-(2-(3-(dimethylamino)propionyl)-1,2,3,4-tetrahydroisoquinolin-6-yl)-N-ethylisoxazole-3-carboxamide], the EC50 in experiment [1] was > 100 nM. In addition, the 50% inhibitory concentration (IC50) at HSP90α (setting [2]) fell in the range of 20 to 100 nM.
Molecule `COCCCNC(=O)c1noc(-c2cc(C(C)C)c(O)cc2O)c1-c1ccc2c(c1)CCN(C)C2` [Example 42, 5-(2,4-dihydroxyl-5-isopropylphenyl)-N-(3-methoxypropyl)-4-(2-methyl-1,2,3,4-tetrahydroisoquinolin-6-yl)isoxazole-3-carboxamide] gave an EC50 in experiment [1] of 20 to 100 nM. Moreover, the IC50 at HSP90α (setting [2]) lay within 20 to 100 nM.
As for `CCNC(=O)c1noc(-c2cc(C(C)C)c(O)cc2O)c1-c1nc2c(n1C)CCN(CC(C)C)C2` [Example 24, 5-(2,4-dihydroxyl-5-isopropylphenyl)-N-ethyl-4-(5-isobutyl-1-methyl-4,5,6,7-tetrahydro-1H-imidazo[4,5-c]pyridin-2-yl)isoxazole-3-carboxamide], the concentration giving a half-maximal response (EC50) in experiment [1] is 20 to 100 nM. In addition, at HSP90α (setting [2]), the half-maximal inhibitory concentration (IC50) was 20 to 100 nM.
`CC(C)c1cc(-c2onc(C(=O)NCCF)c2-c2ccc3c(c2)CCN(C)C3)c(O)cc1O` [Example 40, 5-(2,4-dihydroxyl-5-isopropylphenyl)-N-(2-fluoroethyl)-4-(2-methyl-1,2,3,4-tetrahydroisoquinolin-6-yl)isoxazole-3-carboxamide]: the EC50 in experiment [1] is < 20 nM. The IC50 at HSP90α (setting [2]) was < 20 nM.
Take `CCNC(=O)c1noc(-c2cc(C(C)C)c(O)cc2O)c1-c1ccc2c(c1)C1CCC2N1C` (stereo not drawn) [Example 5, 5-(2,4-dihydroxyl-5-isopropylphenyl)-N-ethyl-4-(9-methyl-1,2,3,4-tetrahydro-1,4-epiminonaphth-6-yl)isoxazole-3-carboxamide]: in experiment [1], the EC50 is < 20 nM. Further, the IC50 at HSP90α was 20 to 100 nM.
